From patent publication US10822338B2, “Substituted aminoquinazoline compounds as A2A antagonist” (Merck Sharp & Dohme Corp., priority 2015, dated 2020)

What follows are compounds tested against human A2A receptor (Homo sapiens (Human), UniProt P29274) (assay: A2A competition binding assay using Scintillation Proximity technology). Details: 0.25 μg of membranes from HEK293 cells expressing the human A2a receptor per well; 0.5 nM tritiated radioligand; Cheng-Prusoff.
Description: Binding affinities of compounds of the invention for the human A2A receptor were determined in a competition binding assay using Scintillation Proximity technology. Thus, 1^μg (^ denotes 1 μg of membrane/well), or preferably 0.25 μg of membranes from HEK293 cells expressing the human A2a receptor were incubated with a compound of the invention at concentrations ranging from 3000 nM to 0.15 nM in a reaction mixture containing also 0.5 nM of a tritiated form of 5-amino-7-[2-phenethyl]-2-(furan-2-yl)-7H-pyrazolo[4,3-e][1,2,4]triazolo[1,5-c]pyrimidine (the tritiated compound) and 25 μg of wheat germ agglutin-coated yttrium silicate SPA beads for one hour at room temperature with agitation. The beads were then allowed to settle to the bottom of the wells for 1 hr, after which the membrane-associated radioactivity was determined by scintillation counting in a TopCount microplate reader. Ki values were determined using the Cheng-Prusoff equation.
HEK293 cells expressing the human, rat, dog or monkey adenosine 2a receptor (Purchased from Perkin-Elmer # RBHA2AM400UA).
The Tritiated compound was prepared in-house by MRL Radiochemistry according to published methods.
Wheat germ agglutinin-coated yttrium silicate SPA beads (GE Healthcare #RPNQ0023). Dilute to 25 mg/mL in assay buffer.
Assay Buffer was prepared in house: Dulbecco's calcium and magnesium free phosphate buffered saline+10 mM MgCl2
Adenosine deaminase from calf intestine, 10 mg/2 mL (Roche #10 102 105 001).
A2A antagonist standard (9-chloro-1-(2-furanyl)-[1,2,4]triazolo[1,5-c]quinazolin-5-amine from Tocris Bioscience)
Make eight 1:3 serial dilutions in 100% DMSO from a 3 mM compound stock
Transfer 50 nL of compound into a 384-well OptiPlate (Perkin Elmer).
Typically, final concentrations of compound used in the assay ranged from 3000 nM to 0.152 nM.
Dilute a solution of the Tritiated compound to 1.25 nM in assay buffer. This a 2.5× solution. The final concentration in the assay is 0.5 nM. Calculate the concentration by counting two 5 μL aliquots.
Use *1 ug or preferrably 0.25 ug of membrane/well. Dilute membranes to 9.7 μg/ml in assay buffer. Treat with 20 ug/ml adenosine deaminase (ADA) for 15 minutes at room temperature to degrade endogenous adenosine.
Use 25 μg/well wheat germ agglutinin-coated yttrium silicate SPA beads.
Mix ADA-treated membranes and SPA beads together for 30 min prior to assay.
To the Perkin-Elmer Optiplate-384 containing the compound titration add 20 μL of 2.5× solution of the Tritiated compound and 30 μL of the membrane-bead mixture. Incubate for one hour at room temperature with agitation.
Include total binding (assay buffer+1% DMSO) and non-specific binding (CGS15943, 1 μM) wells.
Allow the beads to settle for one hour.
A curve fitting program (i.e., Prism, Activity Base, Chemcart) is used to determine the EC50. The Ki value is calculated using the Cheng-Prusoff equation. Ki=EC50/(1+(radioligand concentration/Kd)) Counting and Calculations
Counting and calculations were performed as described within the “A2A Activity Binding of Compounds of the Invention” section. Using the foregoing methods, the following results were obtained using compounds of the invention described herein. Each example compound tested is reported in the following format: Example number: A2A Ki (nM) selectivity.

human A2A receptor, sequence (P29274 whole entry): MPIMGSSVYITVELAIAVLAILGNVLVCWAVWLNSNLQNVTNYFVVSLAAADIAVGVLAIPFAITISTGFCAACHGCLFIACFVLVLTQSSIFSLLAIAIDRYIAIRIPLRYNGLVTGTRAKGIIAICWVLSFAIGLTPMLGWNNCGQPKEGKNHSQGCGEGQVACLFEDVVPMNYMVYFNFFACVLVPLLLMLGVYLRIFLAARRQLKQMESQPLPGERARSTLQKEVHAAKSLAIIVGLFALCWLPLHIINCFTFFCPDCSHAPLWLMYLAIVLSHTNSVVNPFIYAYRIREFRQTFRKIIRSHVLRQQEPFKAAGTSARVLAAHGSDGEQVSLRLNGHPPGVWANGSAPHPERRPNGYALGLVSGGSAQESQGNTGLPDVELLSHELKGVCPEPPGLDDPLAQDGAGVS

Row | Ki | SMILES
1 | 20 nM | COc1cccc2c1nc(N)n1nc([C@@H]3CCCN(CC4(C)CC4)C3)nc21 [Example 10, (R)-7-methoxy-2-(1-((1-methylcyclopropyl)methyl)piperidin-3-yl)-[1,2,4]triazolo[1,5-c]quinazolin-5-amine]
2 | 1.7 nM | COc1cccc2c1nc(N)n1nc(C3CCCC(CCC(F)(F)F)C3)nc21 (single isomer, unassigned) [Example 29B, 7-methoxy-2-(3-(3,3,3-trifluoropropyl)cyclohexyl)-[1,2,4]triazolo[1,5-c]quinazolin-5-amine]
3 | 1.9 nM | COc1cccc2c1nc(N)n1nc(C3CC(F)(F)CCO3)nc21 (single isomer, unassigned) [Example 55A, 2-(4,4-difluorotetrahydro-2H-pyran-2-yl)-7-methoxy-[1,2,4]triazolo[1,5-c]quinazolin-5-amine]
4 | 21 nM | COc1cccc2c1nc(N)n1nc(C3CC4CCC3N(CC(F)(F)F)C4)nc21 (single isomer, unassigned) [Example 35A, 7-methoxy-2-(2-(2,2,2-trifluoroethyl)-2-azabicyclo[2.2.2]octan-6-yl)-[1,2,4]triazolo[1,5-c]quinazolin-5-amine]
5 | 3 nM | COc1cccc2c1nc(N)n1nc([C@H]3CN(C4CCC(F)(F)CC4)CCO3)nc21 [Example 54, (R)-2-(4-(4,4-difluorocyclohexyl)morpholin-2-yl)-7-methoxy-[1,2,4]triazolo[15-c]quinazolin-5-amine]
6 | 5.9 nM | COc1cccc2c1nc(N)n1nc([C@@H]3CCCN(C4CCC(F)(F)CC4)C3)nc21 [Example 49, 2-((3R)-1-(4,4-difluorocyclohexyl)piperidin-3-yl)-7-methoxy[1,2,4]triazolo [1,5-c]quinazolin-5-amine]
7 | 5.4 nM | COc1cccc2c1nc(N)n1nc([C@@H]3CCCN(CCN(C)C)C3)nc21 [Example 4, (R)-2-(1-(2-(dimethylamino)ethyl)piperidin-3-yl)-7-methoxy-[1,2,4]triazolo[1,5-c]quinazolin-5-amine]
8 | 5.9 nM | COc1cccc2c1nc(N)n1nc(C3CCCCN(CC(F)(F)F)C3)nc21 (single isomer, unassigned) [Example 32B, 7-methoxy-2-(1-(2,22-trifluoroethyl)azepan-3-yl)-[1,2,4]triazolo[1,5-c]quinazolin-5-amine]
9 | 17 nM | COc1cccc2c1nc(N)n1nc(C3CCCC(CCC(F)(F)F)C3)nc21 (single isomer, unassigned) [Example 29D, 7-methoxy-2-(3-(3,3,3-trifluoropropyl)cyclohexyl)-[1,2,4]triazolo[1,5-c]quinazolin-5-amine]
10 | 0.6 nM | COc1cccc2c1nc(N)n1nc([C@@H]3CCCN(CCC(F)(F)F)C3)nc21 [Example 1, (R)-7-methoxy-2-(1-(3,3,3-trifluoropropyl)piperidin-3-yl)-[1,2,4]triazolo[1,5-d]quinazolin-5-amine]
11 | 0.3 nM | COc1cccc2c1nc(N)n1nc(C3CCC(F)(F)CN3)nc21 (single isomer, unassigned) [Example 58B, 2-(5,5-difluoropiperidin-2-yl)-7-methoxy-[1,2,4]triazolo[1,5-c]quinazolin-5-amine]
12 | 1.2 nM | Nc1nc2c(OC(F)F)cccc2c2nc([C@@H]3CCCN(CC(F)F)C3)nn12 [Example 25, (R)-2-(1-(2,2-difluoroethyl)piperidin-3-yl)-7-(difluoromethoxy)-[1,2,4]triazolo[1,5-c]quinazolin-5-amine]
13 | 2.4 nM | COc1cccc2c1nc(N)n1nc(C3CNCC(F)(F)C3)nc21 (single isomer, unassigned) [Example 33B, 2-(5,5-difluoropiperidin-3-1-yl)-7-methoxy-[1,2,4]triazolo[1,5-c]quinazolin-5-amine]
14 | 0.3 nM | COc1cccc2c1nc(N)n1nc([C@@H]3CCCN(CC(C(F)(F)F)C(F)(F)F)C3)nc21 [Example 2, (R)-7-methoxy-2-(1-(3,3,3-trifluoro-2-(trifluoromethyl)propyl)piperidin-3-yl)-[1,2,4]triazolo[1,5-c]quinazolin-5-amine]
15 | 1.3 nM | Nc1nc2cc(Cl)ccc2c2nc([C@@H]3CCCN(CC(F)F)C3)nn12 [Example 26, (R)-8-chloro-2-(1-(2,2-difluoroethyl)piperidin-3-yl)-[1,2,4]triazolo[1,5-c]quinazolin-5-amine]
16 | 16 nM | COc1cccc2c1nc(N)n1nc(C3CCCC(CCC(F)(F)F)C3)nc21 (single isomer, unassigned) [Example 29A, 7-methoxy-2-(3-(3,3,3-trifluoropropyl)cyclohexyl)-[1,2,4]triazolo[1,5-c]quinazolin-5-amine]
17 | 0.7 nM | COc1cccc2c1nc(N)n1nc([C@@H]3CCCN(CC4CC(F)(F)C4)C3)nc21 [Example 17, (R)-2-(1-((3,3-difluorocyclobutyl)methyl)piperidin-3-yl)-7-methoxy-[1,2,4]triazolo[1,5-c]quinazolin-5-amine]
18 | 2 nM | COc1cccc2c1nc(N)n1nc([C@@H]3CCN(CC(F)(F)F)C3)nc21 [Example 53, (R)-7-methoxy-2-(1-(2,2,2-trifluoroethyl)pyrrolidin-3-yl)-[1,2,4]triazolo[1,5-c]quinazolin-5-amine]
19 | 1.1 nM | COc1cccc2c1nc(N)n1nc(C3CN(CC(F)F)CC(F)(F)C3)nc21 (single isomer, unassigned) [Example 34A, 2-(1-(2,2-difluoroethyl)-5,5-difluoropiperidin-3-yl)-7-methoxy-[1,2,4]triazolo[1,5-c]quinazolin-5-amine]

Same assay, conditions: values marked ^: 1 μg of membrane/well (HEK293 cells expressing the human A2a receptor); 0.5 nM tritiated radioligand; Cheng-Prusoff

Row | Ki | SMILES
20 | 1.4 nM | COc1cccc2c1nc(N)n1nc(C3CCN(c4cccc(F)c4)C3)nc21 (racemic) [Example 51, (±)-2-(1-(3-fluorophenyl)pyrrolidin-3-yl)-7-methoxy[1,2,4]triazolo[1,5-c]quinazolin-5-amine]
21 | 1.9 nM | COc1cccc2c1nc(N)n1nc([C@@H]3CCCN(c4nncs4)C3)nc21 [Example 20, (R)-2-(1-(1,3,4-thiadiazol-2-yl)piperidin-3-yl)-7-methoxy-[1,2,4]triazolo[1,5-c]quinazolin-5-amine]
22 | 1.2 nM | COc1cccc2c1nc(N)n1nc([C@@H]3CCCN(S(=O)(=O)c4ccccc4)C3)nc21 [Example 36, (R)-7-methoxy-2-(1-(phenylsulfonyl)piperidin-3-yl)-[1,2,4]triazolo[1,5-c]quinazolin-5-amine]
23 | 34 nM | COc1cccc2c1nc(N)n1nc(C3CCCN(c4ccccc4)C3)nc21 (single isomer, unassigned) [Example 50B, 7-methoxy-2-(1-phenylpiperidin-3-yl)-[1,2,4]triazolo[1,5-c]quinazolin-5-amine]
24 | 55 nM | Nc1nc2c3c(ccc2c2nc(C4CCCN(CCC(F)(F)F)C4)nn12)OC(F)(F)O3 (single isomer, unassigned) [Example 56B]
25 | 4.4 nM | COc1cccc2c1nc(N)n1nc([C@@H]3CCCN(C(=O)C(C)(C)C)C3)nc21 [Example 38, 2-((3R)-1-(2,2-dimethylpropanoyl)piperidin-3-yl)-7-methoxy[1,2,4]triazolo [1,5-c]quinazolin-5-amine]
26 | 2.7 nM | COc1cccc2c1nc(N)n1nc([C@@H]3CCCN(C(=O)c4cccs4)C3)nc21 [Example 39, 7-methoxy-2-((3R)-1-(thiophen-2-ylcarbonyl)piperidin-3-yl)[1,2,4]triazolo[1,5-c]quinazolin-5-amine]
